These results are taken from ChEMBL document CHEMBL1201862, “PubChem BioAssay data set” (2004).

Values joined by “and” are separate entries in the source; they are usually repeats but may differ in a detail not shown here. Equal values may be shown once. Active and inactive are the calls of the source.

As a reminder, the AC50 is the concentration at which the activity in the assay is half-maximal. The IC50 is the concentration that inhibits the measured activity by half. As a reminder, the Ki is a measure of affinity in units of concentration, obtained from inhibition or displacement.

Experiment [1] has as its target T1, Histone-lysine N-methyltransferase NSD2 (Homo sapiens, UniProt O96028).
T1 sequence (O96028 whole entry): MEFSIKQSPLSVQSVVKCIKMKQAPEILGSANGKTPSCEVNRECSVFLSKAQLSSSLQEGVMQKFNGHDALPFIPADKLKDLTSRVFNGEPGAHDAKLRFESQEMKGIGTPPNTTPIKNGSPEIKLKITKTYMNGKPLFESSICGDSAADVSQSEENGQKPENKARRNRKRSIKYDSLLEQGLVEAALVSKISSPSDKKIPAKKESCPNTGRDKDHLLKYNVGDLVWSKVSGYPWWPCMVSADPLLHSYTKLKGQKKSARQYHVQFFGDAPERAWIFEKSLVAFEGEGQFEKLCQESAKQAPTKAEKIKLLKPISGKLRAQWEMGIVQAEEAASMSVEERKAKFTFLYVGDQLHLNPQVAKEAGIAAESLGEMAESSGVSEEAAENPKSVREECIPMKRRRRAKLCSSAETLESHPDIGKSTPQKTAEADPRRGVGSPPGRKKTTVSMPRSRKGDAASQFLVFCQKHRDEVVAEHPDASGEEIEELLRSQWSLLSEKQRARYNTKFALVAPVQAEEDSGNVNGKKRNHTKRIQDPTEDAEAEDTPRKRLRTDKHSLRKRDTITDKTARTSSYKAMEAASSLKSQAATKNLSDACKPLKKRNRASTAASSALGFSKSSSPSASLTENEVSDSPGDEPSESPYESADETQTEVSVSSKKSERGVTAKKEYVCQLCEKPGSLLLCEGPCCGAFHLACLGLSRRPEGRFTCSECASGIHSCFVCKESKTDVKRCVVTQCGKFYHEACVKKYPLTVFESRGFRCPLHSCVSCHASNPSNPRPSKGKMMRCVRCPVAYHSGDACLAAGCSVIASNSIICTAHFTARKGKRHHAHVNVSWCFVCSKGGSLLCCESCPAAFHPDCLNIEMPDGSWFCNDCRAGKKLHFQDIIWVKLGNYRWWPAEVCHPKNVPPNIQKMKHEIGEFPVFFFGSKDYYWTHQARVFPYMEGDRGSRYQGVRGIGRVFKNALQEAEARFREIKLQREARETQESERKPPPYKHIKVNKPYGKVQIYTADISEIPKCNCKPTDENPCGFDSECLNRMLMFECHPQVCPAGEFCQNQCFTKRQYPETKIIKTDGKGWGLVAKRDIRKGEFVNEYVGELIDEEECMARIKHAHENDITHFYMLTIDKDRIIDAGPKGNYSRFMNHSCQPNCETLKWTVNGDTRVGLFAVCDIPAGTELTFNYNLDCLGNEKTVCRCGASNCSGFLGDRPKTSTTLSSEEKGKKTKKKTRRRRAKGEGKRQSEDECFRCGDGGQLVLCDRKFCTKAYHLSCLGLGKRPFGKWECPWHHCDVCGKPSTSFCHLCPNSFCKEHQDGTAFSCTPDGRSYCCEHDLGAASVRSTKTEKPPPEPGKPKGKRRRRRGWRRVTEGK
The class given is biochemical.

In the next experiment the target is T2, Protein skinhead-1 (Caenorhabditis elegans, UniProt P34707).
T2 sequence (P34707 whole entry): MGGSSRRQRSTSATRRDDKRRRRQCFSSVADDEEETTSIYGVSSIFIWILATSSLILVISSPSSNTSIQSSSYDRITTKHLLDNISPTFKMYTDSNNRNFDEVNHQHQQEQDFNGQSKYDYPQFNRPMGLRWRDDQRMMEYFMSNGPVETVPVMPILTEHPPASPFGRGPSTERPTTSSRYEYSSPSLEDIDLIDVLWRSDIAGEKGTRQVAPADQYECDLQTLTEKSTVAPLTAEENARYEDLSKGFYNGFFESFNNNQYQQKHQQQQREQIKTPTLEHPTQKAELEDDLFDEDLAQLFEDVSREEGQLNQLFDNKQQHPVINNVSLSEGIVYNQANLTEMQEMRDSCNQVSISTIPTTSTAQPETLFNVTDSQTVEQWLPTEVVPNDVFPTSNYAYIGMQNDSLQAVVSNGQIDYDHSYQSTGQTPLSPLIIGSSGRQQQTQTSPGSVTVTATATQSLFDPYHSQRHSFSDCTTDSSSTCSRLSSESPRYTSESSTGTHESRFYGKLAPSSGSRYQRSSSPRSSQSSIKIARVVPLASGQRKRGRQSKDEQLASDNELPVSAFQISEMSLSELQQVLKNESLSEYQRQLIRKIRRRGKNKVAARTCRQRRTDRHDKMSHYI
The format is functional.

The next experiment addresses Cytochrome P450 2D6 (Homo sapiens, UniProt P10635).
In a further experiment the target is Cytochrome P450 3A4 (Homo sapiens, UniProt P08684).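 Note: CYP3A4 tested as one member of a cytochrome P450 panel screen.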
Sequence of Cytochrome P450 3A4 (P08684 whole entry): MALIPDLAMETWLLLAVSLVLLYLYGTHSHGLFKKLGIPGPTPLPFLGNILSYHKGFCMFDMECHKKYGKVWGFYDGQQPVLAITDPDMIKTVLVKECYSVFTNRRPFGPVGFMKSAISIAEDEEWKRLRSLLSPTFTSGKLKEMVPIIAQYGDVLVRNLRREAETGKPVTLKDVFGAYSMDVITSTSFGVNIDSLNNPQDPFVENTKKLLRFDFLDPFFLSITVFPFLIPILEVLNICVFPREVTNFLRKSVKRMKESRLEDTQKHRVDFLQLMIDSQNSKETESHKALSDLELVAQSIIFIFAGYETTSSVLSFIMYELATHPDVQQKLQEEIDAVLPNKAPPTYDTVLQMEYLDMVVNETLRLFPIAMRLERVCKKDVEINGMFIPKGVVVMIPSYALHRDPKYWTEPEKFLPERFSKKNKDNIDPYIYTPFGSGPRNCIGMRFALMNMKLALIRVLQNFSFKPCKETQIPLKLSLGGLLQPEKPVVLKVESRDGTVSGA
The target in the next experiment is T3, fMet-Leu-Phe receptor (Homo sapiens, UniProt P21462).
T3 sequence (P21462 whole entry): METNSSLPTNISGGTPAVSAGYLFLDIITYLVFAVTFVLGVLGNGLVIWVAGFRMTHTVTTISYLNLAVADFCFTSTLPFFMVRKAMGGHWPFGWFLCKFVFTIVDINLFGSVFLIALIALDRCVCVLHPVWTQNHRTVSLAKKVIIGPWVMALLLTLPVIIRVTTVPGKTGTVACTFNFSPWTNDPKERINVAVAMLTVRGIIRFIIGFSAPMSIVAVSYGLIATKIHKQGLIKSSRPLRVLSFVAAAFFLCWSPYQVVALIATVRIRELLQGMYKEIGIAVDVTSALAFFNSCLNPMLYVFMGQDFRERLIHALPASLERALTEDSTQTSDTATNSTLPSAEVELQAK
In words: formyl peptide receptor binders – dose response (AID 519). The format is functional.

Another experiment deals with T4, Aminopeptidase N (Plasmodium falciparum FcB1/Columbia, UniProt O96935).
T4 sequence (O96935 whole entry): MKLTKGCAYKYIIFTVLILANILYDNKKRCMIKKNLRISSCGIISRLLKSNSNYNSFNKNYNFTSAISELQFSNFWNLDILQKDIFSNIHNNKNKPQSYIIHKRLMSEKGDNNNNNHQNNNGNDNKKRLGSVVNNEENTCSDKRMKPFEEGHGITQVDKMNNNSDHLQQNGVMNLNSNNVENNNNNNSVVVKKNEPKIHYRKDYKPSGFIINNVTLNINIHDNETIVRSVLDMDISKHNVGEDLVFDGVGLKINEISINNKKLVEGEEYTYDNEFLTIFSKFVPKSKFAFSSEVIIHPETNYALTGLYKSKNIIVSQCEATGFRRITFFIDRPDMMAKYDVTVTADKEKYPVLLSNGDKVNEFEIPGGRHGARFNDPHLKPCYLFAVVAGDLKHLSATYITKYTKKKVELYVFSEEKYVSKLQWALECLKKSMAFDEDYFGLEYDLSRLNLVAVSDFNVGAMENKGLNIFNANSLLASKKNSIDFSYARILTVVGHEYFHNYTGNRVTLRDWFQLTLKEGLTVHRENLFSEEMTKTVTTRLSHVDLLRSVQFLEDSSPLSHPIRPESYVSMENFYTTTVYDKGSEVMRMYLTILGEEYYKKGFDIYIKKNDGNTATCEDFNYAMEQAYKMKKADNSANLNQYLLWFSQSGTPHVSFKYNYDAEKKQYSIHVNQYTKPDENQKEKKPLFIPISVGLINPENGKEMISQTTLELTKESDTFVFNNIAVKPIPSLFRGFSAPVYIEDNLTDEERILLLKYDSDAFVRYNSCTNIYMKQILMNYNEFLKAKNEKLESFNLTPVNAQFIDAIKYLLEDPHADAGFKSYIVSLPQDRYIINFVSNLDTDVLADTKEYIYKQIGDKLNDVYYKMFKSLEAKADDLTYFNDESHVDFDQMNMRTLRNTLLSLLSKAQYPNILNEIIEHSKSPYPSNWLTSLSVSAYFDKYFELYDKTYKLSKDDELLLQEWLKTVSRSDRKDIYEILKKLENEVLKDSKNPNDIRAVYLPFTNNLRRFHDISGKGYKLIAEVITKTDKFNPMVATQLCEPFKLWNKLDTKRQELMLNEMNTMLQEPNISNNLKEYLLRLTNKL
Put plainly: malaria alanyl aminopeptidase activity blockers – biochemical, fluorogenic H-Leu-NHMec substrate, 1536-well (AID 1445). The arrangement: species or system Plasmodium falciparum 3D7, 3D7.

The target in a further experiment is Cytochrome P450 2C19 (Homo sapiens, UniProt P33261). Put plainly: Cytochrome panel assay with activity outcomes. Panel member name: p450-cyp2c19 Compounds with AC50 equal or less than 10 uM are considered active. The following applies: read-out: AC50. The format is functional.
Sequence of Cytochrome P450 2C19 (P33261 whole entry): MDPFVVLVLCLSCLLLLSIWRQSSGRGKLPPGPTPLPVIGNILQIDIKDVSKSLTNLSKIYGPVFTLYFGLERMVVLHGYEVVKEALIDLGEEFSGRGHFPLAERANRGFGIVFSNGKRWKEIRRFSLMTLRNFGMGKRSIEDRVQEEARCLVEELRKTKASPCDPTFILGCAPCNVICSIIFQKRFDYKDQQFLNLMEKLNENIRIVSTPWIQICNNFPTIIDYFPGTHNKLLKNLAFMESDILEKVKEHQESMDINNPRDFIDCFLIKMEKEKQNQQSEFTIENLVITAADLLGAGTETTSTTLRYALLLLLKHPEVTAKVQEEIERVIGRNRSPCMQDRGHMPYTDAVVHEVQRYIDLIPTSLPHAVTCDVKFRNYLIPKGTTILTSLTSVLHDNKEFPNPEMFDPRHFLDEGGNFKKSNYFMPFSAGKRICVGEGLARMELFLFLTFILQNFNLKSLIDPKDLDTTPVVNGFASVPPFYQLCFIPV
Experiment [2] has as its target T5, DNA repair and recombination protein RAD54-like (Homo sapiens, UniProt Q92698).
T5 sequence (Q92698 whole entry): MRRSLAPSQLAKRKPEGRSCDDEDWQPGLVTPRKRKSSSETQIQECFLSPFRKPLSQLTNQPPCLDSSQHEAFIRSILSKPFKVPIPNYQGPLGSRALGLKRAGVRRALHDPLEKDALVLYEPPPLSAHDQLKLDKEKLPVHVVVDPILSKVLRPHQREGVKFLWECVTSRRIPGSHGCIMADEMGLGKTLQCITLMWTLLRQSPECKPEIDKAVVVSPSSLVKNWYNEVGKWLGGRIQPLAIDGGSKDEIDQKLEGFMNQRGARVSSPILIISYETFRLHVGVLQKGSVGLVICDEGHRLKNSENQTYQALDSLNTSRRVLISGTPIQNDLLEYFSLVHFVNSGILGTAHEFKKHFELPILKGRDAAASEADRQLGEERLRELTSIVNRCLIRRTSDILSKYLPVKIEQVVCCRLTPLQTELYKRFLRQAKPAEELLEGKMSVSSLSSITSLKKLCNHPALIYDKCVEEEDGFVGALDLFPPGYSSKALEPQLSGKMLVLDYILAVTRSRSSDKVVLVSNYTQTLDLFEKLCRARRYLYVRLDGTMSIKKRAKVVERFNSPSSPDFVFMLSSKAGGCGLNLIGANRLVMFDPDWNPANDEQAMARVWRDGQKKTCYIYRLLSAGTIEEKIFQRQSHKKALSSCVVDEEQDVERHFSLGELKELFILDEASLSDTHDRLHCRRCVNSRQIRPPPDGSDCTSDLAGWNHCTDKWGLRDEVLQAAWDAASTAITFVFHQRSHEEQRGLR
Put plainly: RAD54 Holliday junction migration blockers – biochemical, fluorescence, cherry-picked samples, dose series, confirmation (AID 651657). The class given is functional.

Another experiment concerns the target T6, Cytochrome P450 1A2 (Homo sapiens, UniProt P05177).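 Note: PubChem cytochrome P450 panel assay, CYP1A2 panel member.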
T6 sequence (P05177 whole entry): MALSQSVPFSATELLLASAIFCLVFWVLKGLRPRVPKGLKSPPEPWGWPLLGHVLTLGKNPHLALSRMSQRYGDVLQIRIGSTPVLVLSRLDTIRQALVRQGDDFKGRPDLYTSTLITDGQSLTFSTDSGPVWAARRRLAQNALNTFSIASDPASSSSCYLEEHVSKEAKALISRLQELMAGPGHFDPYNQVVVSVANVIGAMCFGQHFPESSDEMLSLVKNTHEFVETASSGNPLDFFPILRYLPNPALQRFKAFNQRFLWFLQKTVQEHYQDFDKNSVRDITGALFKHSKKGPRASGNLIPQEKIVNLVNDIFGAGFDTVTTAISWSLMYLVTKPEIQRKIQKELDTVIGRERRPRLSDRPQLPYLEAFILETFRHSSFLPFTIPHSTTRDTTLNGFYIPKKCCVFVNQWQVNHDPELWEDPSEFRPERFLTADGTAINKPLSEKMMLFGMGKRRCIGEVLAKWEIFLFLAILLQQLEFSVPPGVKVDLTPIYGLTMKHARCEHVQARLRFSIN

Sequence of Cytochrome P450 2D6 (P10635 whole entry): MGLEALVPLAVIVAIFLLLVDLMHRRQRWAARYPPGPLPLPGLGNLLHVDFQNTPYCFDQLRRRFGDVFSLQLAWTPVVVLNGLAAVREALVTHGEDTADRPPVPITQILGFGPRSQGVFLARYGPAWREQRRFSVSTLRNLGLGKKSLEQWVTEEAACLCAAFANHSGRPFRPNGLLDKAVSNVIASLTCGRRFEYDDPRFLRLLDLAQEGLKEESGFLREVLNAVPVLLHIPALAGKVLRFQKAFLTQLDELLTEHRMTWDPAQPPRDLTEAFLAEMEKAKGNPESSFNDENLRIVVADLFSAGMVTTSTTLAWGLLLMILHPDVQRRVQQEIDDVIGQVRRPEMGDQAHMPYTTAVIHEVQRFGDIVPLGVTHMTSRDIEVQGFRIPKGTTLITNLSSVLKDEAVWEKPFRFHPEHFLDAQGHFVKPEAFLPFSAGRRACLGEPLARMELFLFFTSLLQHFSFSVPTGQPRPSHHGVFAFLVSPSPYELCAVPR

As to `CCNCCC(=O)N1c2ccccc2Sc2ccc(C(F)(F)F)cc21`, in experiment [1], the AC50 was > 20 µM (inactive). As for `Clc1ccccc1-c1nc(-c2ccncc2)no1` [PIFEXOLE], the IC50 on Protein skinhead-1 is 11.2 µM (active) and 18.8 µM (active). Further, the AC50 on Cytochrome P450 2D6 was 3.16 µM (inconclusive); at Cytochrome P450 3A4, 2 µM (inconclusive). As to `COC(=O)c1ccc(-c2ccc(Cl)cc2)nc1C`, the IC50 on Protein skinhead-1 is 82.5 µM (inactive). In the case of `O=C(Nc1ccc2nc(-c3ccccc3)oc2c1)c1ccco1`, the IC50 on Protein skinhead-1 is > 100 µM (inactive). Regarding `CCOc1cc(C(=O)NCc2nnc(SCC(=O)OC)n2C)cc(OCC)c1OCC`, the Ki on fMet-Leu-Phe receptor is > 66.7 µM (inactive).

Consider `O=C(COc1ccccc1)N/N=C/c1sc(=O)n(Cc2cccc(C(=O)O)c2)c1Cl`, for which the AC50 in experiment [1] was > 20 µM (inactive).

Regarding `O=C(C1=C(O)C(=O)N(CC2CCCO2)C1c1cccnc1)c1ccco1` (stereo not given), at fMet-Leu-Phe receptor, the Ki is 54.8 µM (inactive).

For `CNCCC1Sc2ccccc2Oc2ccccc21` (stereo not given), the AC50 in experiment [1] is > 20 µM (inactive). Take `CCCN(CCC)CCCNC(=O)c1cc2cc3ccc(OC)cc3nc2o1`: the IC50 on Aminopeptidase N was 45.9 µM (active). The AC50 is 20 µM (inconclusive) on Cytochrome P450 2C19, 31.6 µM (active) in experiment [2], 20 µM (inconclusive) on Cytochrome P450 1A2 and 15.8 µM (inconclusive) at Cytochrome P450 3A4. As to `Cc1nn(C(=O)CCC(=O)NCc2cccc(F)c2)c2ccccc12`, the IC50 at Protein skinhead-1 is > 100 µM (inactive). With `CCc1nn2c(=O)cc(CSc3nc4sc5c(c4c(=O)n3C)CCCC5)nc2s1`, the Ki on fMet-Leu-Phe receptor was > 66.7 µM (inactive). Take `CCOC(=O)CCn1nc(-c2ccc(Cl)cc2)cc1N`: the Ki on fMet-Leu-Phe receptor was > 66.7 µM (inactive). `Clc1ccc2oc(SCc3cccnc3)nc2c1`: on Protein skinhead-1, the IC50 is 33.5 µM (active).

For `CCSc1nnc(NC(=O)CSc2nnc(Cc3cccn3C)n2CCc2ccccc2)s1`, the Ki on fMet-Leu-Phe receptor is > 66.7 µM (inactive).
